Assay results published in US6916793B2, “Selenium-containing pro-drugs for cancer therapy” (priority 1999, dated 2005).
Read-outs that look alike come from different tables or passages of the source.

Key:
A549 cells [1] = experiment: Combined effect of SeMet with BCNU, cell survival; format: cell-based, human; settings: A549 transfected with rAd-MET, 20% FBS
Experimental: A549 cells that had been transfected with rAd-MET were cultured in RPMI with 20% FBS with and without 8 μM SeMet. In each case, duplicate samples were cultured without BCNU and in the presence of 300 μM BCNU. Cell survival was determined […]. With no treatment, 100% of the cells survived; in the presence of SeMet alone, 80% of the cells survived. In the absence of SeMet, but in the presence of BCNU, 55% cell survival was obtained; in the presence of 8 μM SeMet and 300 μM BCNU, less than 10% of the cells survived. Thus, SeMet dramatically enhances the effect of BCNU.

A549 cells [2] = experiment: ROS generation, lucigenin-dependent chemiluminescence; format: cell-based, human; settings: for chemiluminescence relative to control: 30 minutes
Experimental: It is believed that selenium cytotoxicity is mediated by generation of reactive oxygen species (ROS). This can be measured by standard techniques which employ lucigenin-dependent chemiluminescence as described by Yan, L., et al., Biochem Pharmacol (1993) 45:429-437, cited above.
A549 cells were transduced with rAd-MET at MOI of 50, 24 hours before measurement. The cells (1×10^6) were incubated in 1 ml RPMI in the presence of SeMet with or without 10 units of superoxide dismutase (SOD) for 30 minutes. Lucigenin (50 μg) was added to the cell suspension just prior to measurement and integrated chemiluminescence was measured for 10 seconds, three times, using a TD21 luminometer (Turner Designs).

[3] = system: A549 human lung cancer cells; experiment: Combined variation of rAd-MET and SeMet, percentage of surviving cells; format: cell-based
Experimental: The experiments described in Examples 2 and 3 were performed on A549 human lung cancer cells using varying concentrations of SeMet from 0-40 μM and of virus rAd-MET titer of 0-8×10^5 pfu using rAd as a control. Percentage of surviving cells was again used as an index of efficacy.

Hep-2 = experiment: MTT assay, serial dilutions of SeMet on transduced cells; format: cell-based; settings: Homo sapiens
Experimental: (§1) Cells (4×10^3) of various tumor lines were seeded onto 96-well plates. After 24 hours, serial dilutions of the methioninase expressing vector (rAd-MET) or a control vector containing no methioninase encoding nucleotide sequence (rAd) were added to the wells with and without 20 μM of selenomethionine (SeMet) (20 μM). After incubating the plates for three (3) days, the medium was replaced with 0.5 mg/ml MTT for two (2) hours and analyzed using a microplate reader (BioRad), in a standard MTT assay. Results were recorded as percentage of surviving cells.
(§2) The cell lines were also evaluated for their response to varying concentrations of SeMet. In these protocols, the cells were seeded as above into 96-well plates and infected with 4×10^5 pfu of rAd-MET or control rAd. After 24 hours, serial dilutions of SeMet were added and three (3) days later cytotoxicity was evaluated with the MTT assay as described in Example 2. The results are shown for OVCAR-8 cells in FIG. 6.

EKVX = experiment: as above; format: cell-based; settings: Homo sapiens
Experimental: as §1, §2

A549 = experiment: as above; format: cell-based; settings: Homo sapiens
Experimental: as §1, §2

MIA PaCa-2 = experiment: as above; format: cell-based; settings: Homo sapiens
Experimental: as §1, §2

BxPC-3 = experiment: as above; format: cell-based; settings: Homo sapiens
Experimental: as §1, §2

OVCAR-8 = experiment: as above; format: cell-based, human; settings: for IC50: Homo sapiens
Experimental: as §1, §2

A549 cells [4] = experiment: Combined effect of SeMet with doxorubicin, cell survival; format: cell-based, human; settings: A549 transfected with rAd-MET, 10% FBS
Experimental: In a similar experiment, A549 cells that had been transfected with rAd-MET were cultured in RPMI with 10% FBS in the presence and absence of 4 μM SeMet and with and without 0.4 μM doxorubicin. In the presence of doxorubicin alone, a 75% cell survival rate was obtained; when SeMet was present alone, a 60% cell survival rate was obtained.

keratinocytes = settings: at the concentrations studied; cited from earlier work
human tumor cell lines = experiment: MTT assay, summary statements over all tumor cell lines; format: cell-based; settings: virtually all cell lines
Experimental: as §1
The cell lines tested were human cancer cell lines OVCAR-8 (ovarian cancer), A549 and EKVX (lung cancer), Hep-2 (head and neck cancer), MIA PaCa-2 and BxPC-3 (pancreatic cancer), human rhabdomyosarcoma cell line A204 and human prostate cell line PC-3. The results with respect to the OVCAR-8 cell line and cell lines A204, and PC-3 are shown in FIGS. 2, 3 and 4 in X/Y graphs; FIG. 5 is a bar graph of the results with respect to the A549 cell line.
as §2, with “The results are shown for OVCAR-8 cells in FIG. 6.” left out

SMILES: O=NN(CCCl)C(=O)NCCCl [BCNU, reference compound]
- cell survival (A549 cells [1]; 300 μM BCNU, no SeMet): 55%

SMILES: C[Se]CC[C@H](N)C(=O)O [SeMet, selenomethionine]
- effect of superoxide dismutase on SeMet-dependent chemiluminescence (A549 cells [2]; 10 units SOD, 160 μM and 40 μM SeMet): inhibited by SOD
- chemiluminescence relative to control (A549 cells [2]; A549 transduced with rAd-MET MOI 50, 40 μM SeMet): 20 times
- chemiluminescence relative to control (A549 cells [2]; A549 transduced with rAd-MET MOI 50, 160 μM SeMet): over 100 times
- cell survival (A549 cells [1]; 8 μM SeMet alone): 80%
- toxicity of selenomethionine itself ([3]; A549, control vector, SeMet 20-40 μM, FIG. 7): slight toxicity
- cells survived ([3]; A549, rAd-MET 4×10^5, SeMet 2.5 μM): 50%
- cell survival ([3]; A549, rAd-MET 8×10^5 pfu, SeMet 5 μM or more): substantially no cells survived
- viability ([3]; A549, rAd-MET 5,000 pfu, SeMet 20-40 μM, FIG. 8): drastically reduced viability
- IC50 (Hep-2; HEp-2, read-out: SeMet IC50 (μM)): 411 µM
- IC50 (Hep-2; HEp-2, read-out: SeMet IC50 (μM), Hep-2 transduced with Control-rAd 4×10^5 pfu): 387 µM
- IC50 (Hep-2; HEp-2, read-out: SeMet IC50 (μM), Hep-2 transduced with rAd-MET 4×10^5 pfu): 1.66 µM
- IC50 (EKVX; read-out: SeMet IC50 (μM)): 1360 µM
- IC50 (EKVX; read-out: SeMet IC50 (μM), EKVX transduced with Control-rAd 4×10^5 pfu): 686 µM
- IC50 (EKVX; read-out: SeMet IC50 (μM), EKVX transduced with rAd-MET 4×10^5 pfu): 1.66 µM
- IC50 (A549; A549, read-out: SeMet IC50 (μM)): 486 µM
- IC50 (A549; A549, read-out: SeMet IC50 (μM), A549 transduced with Control-rAd 4×10^5 pfu): 327 µM
- IC50 (A549; A549, read-out: SeMet IC50 (μM), A549 transduced with rAd-MET 4×10^5 pfu): 0.5 µM
- IC50 (MIA PaCa-2; MIA PaCa-2, read-out: SeMet IC50 (μM)): 422 µM
- IC50 (MIA PaCa-2; MIA PaCa-2, read-out: SeMet IC50 (μM), MIA PaCa-2 transduced with Control-rAd 4×10^5 pfu): 338 µM
- IC50 (MIA PaCa-2; MIA PaCa-2, read-out: SeMet IC50 (μM), MIA PaCa-2 transduced with rAd-MET 4×10^5 pfu): 3.86 µM
- IC50 (BxPC-3; BXPC-3, read-out: SeMet IC50 (μM)): 312 µM
- IC50 (BxPC-3; BXPC-3, read-out: SeMet IC50 (μM), BxPC-3 transduced with Control-rAd 4×10^5 pfu): 223 µM
- IC50 (BxPC-3; BXPC-3, read-out: SeMet IC50 (μM), BxPC-3 transduced with rAd-MET 4×10^5 pfu): 3.38 µM
- IC50 (OVCAR-8; OVCAR-8, read-out: SeMet IC50 (μM)): 224 µM
- IC50 (OVCAR-8; OVCAR-8, read-out: SeMet IC50 (μM), OVCAR-8 transduced with Control-rAd 4×10^5 pfu): 170 µM
- IC50 (OVCAR-8; OVCAR-8, read-out: SeMet IC50 (μM), OVCAR-8 transduced with rAd-MET 4×10^5 pfu): 0.59 µM
- lowering of IC50 for SeMet in the presence of rAd-MET as compared to control rAd (OVCAR-8; OVCAR-8 cells, FIG. 6): lowered over a thousandfold
- cell survival rate (A549 cells [4]; 4 μM SeMet alone): 60%
- cytotoxicity in keratinocytes (keratinocytes): not cytotoxic
- induction of apoptosis in keratinocytes (keratinocytes): did not induce cellular apoptosis
- change in IC50 for SeMet in the presence of rAd-MET (human tumor cell lines): dramatic decrease in IC50

SMILES: COc1cccc2c1C(=O)c1c(O)c3c(c(O)c1C2=O)C[C@@](O)(C(=O)CO)C[C@@H]3O[C@H]1C[C@H](N)[C@H](O)[C@H](C)O1 [doxorubicin, reference compound]
- cell survival rate (A549 cells [4]; 0.4 μM doxorubicin alone): 75%

SMILES: O=[Se](O)O [selenite]
- cytotoxicity in keratinocytes (keratinocytes): cytotoxic
- induction of apoptosis in keratinocytes (keratinocytes): induced apoptosis

SMILES: NCC[Se][Se]CCN [selenocystamine]
- cytotoxicity in keratinocytes (keratinocytes): cytotoxic
- induction of apoptosis in keratinocytes (keratinocytes): induced apoptosis

SMILES: N[C@@H](C[Se][Se]C[C@H](N)C(=O)O)C(=O)O [selenocystine]
- cytotoxicity in keratinocytes (keratinocytes): cytotoxic
- induction of apoptosis in keratinocytes (keratinocytes): induced apoptosis
